In US20180085371A1, “COMBINATION OF PANOBINOSTAT AND RUXOLITINIB IN THE TREATMENT OF CANCER SUCH AS A MYELOPROLIFERATIVE NEOPLASM” (Novartis AG, priority 2011, published 2018):

Test system: Acetylated Histone H3
Experiment: PD marker acetylated histone H3 by IHC in spleen and bone marrow
Assay type: in vivo, mouse
Conditions: Compound B 8 mg/kg alone or with Compound A 60 mg/kg
Text: Briefly, the spleen was removed in total, weighed and placed on a dissection tray. The spleen was cut transverse in two halves and two equal pieces were taken from the middle parts using a scalpel. […] Baker, Medite, Switzerland). Fixative volume was at least tenfold in excess compared to tissue volume. […] After a last wash in PBS, the tissues were cut up and set with the surface of interest downwards in a universal histocassette followed by processing in a TPC 15Duo (Tissue Processing Center) for paraffinization. From each tissue paraffin block, several 3 μm thick sections were cut on a sliding or rotary microtome (Mikrom International AG, Switzerland), spread in a 45° C. water-bath, mounted on microscope slides (Polysine, VWR International, Leuven, Belgium), and air-dried in an oven at 37° C. overnight. […] Splenic architecture was evaluated as destroyed (1+) or preserved (0). Presence of myeloid, erythroid and adipocytes cells was evaluated as 0, 1+, 2+, 3+ based on cellularity. […] Whole slide automated quantitative assessment of p-STAT5-positive and -negative cell nuclei were performed using Definiens eCognition software (eCognition version XD 1.5, Definiens AG, Germany). The results were expressed as percent of positive p-STAT5 nuclei out of total nuclei.

Q: For `Cc1[nH]c2ccccc2c1CCNCc1ccc(/C=C/C(=O)NO)cc1` [Compound B, N-hydroxy-3-[4-[[[2-(2-methyl-1H-indol-3-yl)-ethyl]-amino]methyl]phenyl]-2E-2-propenamide], which “Acetylated histone H3 (IHC), surrogate readout for deacetylase inhibition” value is on record?
A: Its value is “clear increase”.
